Data taken from patent US10815238B2, “Antimicrobial compounds and methods of making and using the same” (BIOVERSYS AG, priority 2013, dated 2020).

Tests used:
[1] = test system: Staphylococcus aureus (S. aureus) 11540 strain; experiment: Standard microdilution assay, MIC against S. aureus 11540; type: cell-based; conditions: S. aureus 11540 strain, standard microdilution assay, cutoff 16 micrograms/mL, read-out: MIC S. aureus
Procedure, shortened: (§1)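 Scoring as + or − used a 16 micrograms/mL cutoff on minimum inhibitory concentrations. These came from CLSI-standard microdilution, quality-controlled with reference strains tested in the same run.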

[2] = test system: Eschericia coli (E. coli) strain ATCC25922; experiment: Standard microdilution assay, MIC against E. coli ATCC25922; type: cell-based; conditions: Escherichia coli; E. coli strain ATCC25922, standard microdilution assay; cutoff 16 micrograms/mL; read-out: MIC E. Coli
Procedure, shortened: as §1

CC(=N)NCC[C@@H]1CCC[C@@H](c2ccc(-n3cc4cc(-c5cc(CCC[C@H](C)N)cc(Cl)c5F)[nH]c4nc3=O)cc2)N1 [Compound 516]
MIC [1]: < 16 µg/mL | MIC [2]: < 16 µg/mL

CN/C(=C/[N+](=O)[O-])NCC[C@@H]1CCC[C@@H](c2ccc(-n3cc4cc(-c5cc(CCC[C@H](C)N)cc(Cl)c5F)[nH]c4nc3=O)cc2)N1 [Compound 517]
MIC [1]: < 16 µg/mL | MIC [2]: < 16 µg/mL

Cc1cc(OC[C@@H](CCNC(=N)N)NCc2ccc(-n3cc4cc(-c5cc(CCC[C@H](C)N)cc(Cl)c5F)[nH]c4nc3=O)cc2)no1 [Compound 518]
MIC [1]: < 16 µg/mL | MIC [2]: < 16 µg/mL

C[C@H](N)CCCc1cc(Cl)c(F)c(-c2cc3cn(-c4ccc(CN[C@@H](CCNC(=N)N)CCc5nccs5)cc4)c(=O)nc3[nH]2)c1 [Compound 519]
MIC [1]: < 16 µg/mL | MIC [2]: < 16 µg/mL

C[C@H](N)CCCc1cccc(-c2cc3cn(-c4ccc(CNCCCNC(=N)N)cc4)c(=O)nc3[nH]2)c1 [Compound 520]
MIC [1]: < 16 µg/mL | MIC [2]: < 16 µg/mL

C[C@H](N)CCCc1cccc(-c2cc3cn(-c4ccc([C@H](C)NCCCNC(=N)N)cc4)c(=O)nc3[nH]2)c1 [Compound 521]
MIC [1]: < 16 µg/mL | MIC [2]: < 16 µg/mL

C[C@H](N)CCCc1cc(Cl)c(F)c(-c2cc3cn(-c4ccc([C@@H]5CCO[C@@H](CCCN)C5)cc4)c(=O)nc3[nH]2)c1 [Compound 522]
MIC [1]: < 16 µg/mL | MIC [2]: < 16 µg/mL

C[C@H](N)CCCc1cc(Cl)c(F)c(-c2cc3cn(-c4ccc([C@@H]5CCO[C@@H](CCCNC(=N)N)C5)cc4)c(=O)nc3[nH]2)c1 [Compound 523]
MIC [1]: < 16 µg/mL | MIC [2]: < 16 µg/mL

C[C@H](N)CCCc1cc(Cl)c(F)c(-c2cc3cn(-c4ccc(CN[C@H](CCNC(=N)N)CNc5ncccn5)cc4)c(=O)nc3[nH]2)c1 [Compound 524]
MIC [1]: < 16 µg/mL | MIC [2]: < 16 µg/mL

C[C@H](N)CCCc1cc(Cl)c(F)c(-c2cc3cn(-c4ccc([C@@H]5CCO[C@@H](CCN)C5)cc4)c(=O)nc3[nH]2)c1 [Compound 525]
MIC [1]: < 16 µg/mL | MIC [2]: < 16 µg/mL

C[C@H](N)CCCc1cc(Cl)c(F)c(-c2cc3cn(-c4ccc([C@@H]5CCO[C@@H](CCNC(=N)N)C5)cc4)c(=O)nc3[nH]2)c1 [Compound 526]
MIC [1]: < 16 µg/mL | MIC [2]: < 16 µg/mL

C[C@H](N)CCCc1cc(Cl)c(F)c(-c2cc3cn(-c4ccc([C@@H]5CCC[C@@H](CCNC(=N)N)N5C)cc4)c(=O)nc3[nH]2)c1 [Compound 527]
MIC [1]: < 16 µg/mL | MIC [2]: < 16 µg/mL

C[C@H](N)CCCc1cc(Cl)c(F)c(-c2cc3cn(-c4ccc(CN[C@H](CCNC(=N)N)CCc5nccs5)cc4)c(=O)nc3[nH]2)c1 [Compound 528]
MIC [1]: < 16 µg/mL | MIC [2]: < 16 µg/mL

C[C@H](N)CCCc1cc(Cl)c(F)c(-c2cc3cn(-c4ccc([C@@H]5CCC[C@@H](Cc6ncc(N)s6)N5)cc4)c(=O)nc3[nH]2)c1 [Compound 529]
MIC [1]: > 16 µg/mL | MIC [2]: > 16 µg/mL

C[C@H](N)CCCc1cc(Cl)c(F)c(-c2cc3cn(-c4ccc([C@@H]5CCC[C@@H](CCn6cccn6)N5)cc4)c(=O)nc3[nH]2)c1 [Compound 530]
MIC [1]: > 16 µg/mL | MIC [2]: > 16 µg/mL

C[C@H](N)CCCc1cccc(-c2cc3cn(-c4ccc([C@@H]5CCC[C@@H](CCNC(=N)N)N5)cc4)c(=O)nc3[nH]2)c1 [Compound 531]
MIC [1]: < 16 µg/mL | MIC [2]: < 16 µg/mL

C[C@H](N)CCCc1cc(Cl)c(F)c(-c2cc3cn(-c4ccc([C@@H]5CCC[C@@H](CCC6CC6)N5)cc4)c(=O)nc3[nH]2)c1 [Compound 532]
MIC [1]: < 16 µg/mL | MIC [2]: > 16 µg/mL

C[C@H](N)CCCc1cc(Cl)c(F)c(-c2cc3cn(-c4ccc([C@@H]5CCC[C@@H](CCn6ccnc6)N5)cc4)c(=O)nc3[nH]2)c1 [Compound 533]
MIC [1]: < 16 µg/mL | MIC [2]: < 16 µg/mL

C[C@H](N)CCCc1cc(Cl)c(F)c(-c2cc3cn(-c4ccc(CO[C@H](CCNC(=N)N)CNc5nccs5)cc4)c(=O)nc3[nH]2)c1 [Compound 534]
MIC [1]: < 16 µg/mL | MIC [2]: < 16 µg/mL

C[C@H](N)CCCc1cc(Cl)c(F)c(-c2cc3cn(-c4ccc([C@@H]5CCC[C@@H](CCNc6nccs6)N5)cc4)c(=O)nc3[nH]2)c1 [Compound 535]
MIC [1]: < 16 µg/mL | MIC [2]: > 16 µg/mL

C[C@H](N)CCCc1cc(Cl)c(F)c(-c2cc3cn(-c4ccc(CN[C@H](CCNC(=N)N)CNc5ncc[nH]5)cc4)c(=O)nc3[nH]2)c1 [Compound 536]
MIC [1]: < 16 µg/mL | MIC [2]: < 16 µg/mL

C[C@H](N)CCCc1cc(Cl)c(F)c(-c2cc3cn(-c4ccc(CN[C@H](CCN)CNc5ncc[nH]5)cc4)c(=O)nc3[nH]2)c1 [Compound 537]
MIC [1]: < 16 µg/mL | MIC [2]: < 16 µg/mL

C[C@H](N)CCCc1cc(Cl)c(F)c(-c2cc3cn(-c4ccc([C@@H]5CCC[C@@H](Cc6cnc(N)s6)N5)cc4)c(=O)nc3[nH]2)c1 [Compound 538]
MIC [1]: < 16 µg/mL | MIC [2]: > 16 µg/mL

C[C@H](N)CCCc1cc(Cl)c(F)c(-c2cc3cn(-c4ccc([C@@H]5CCC[C@@H](Cn6cn[nH]c6=O)N5)cc4)c(=O)nc3[nH]2)c1 [Compound 539]
MIC [1]: > 16 µg/mL | MIC [2]: > 16 µg/mL

C[C@H](N)CCCc1cc(Cl)c(F)c(-c2cc3cn(-c4ccc([C@@H]5CCC[C@@H](CNC(=N)N)N5)cc4)c(=O)nc3[nH]2)c1 [Compound 540]
MIC [1]: < 16 µg/mL | MIC [2]: < 16 µg/mL
